We go through 3 compounds from patent US20240398830A1, “COMPOSITIONS AND USES THEREOF FOR TREATMENT OF NEUROLOGICAL DISORDERS” (UNIVERSITY OF SOUTH FLORIDA, priority 2021, published 2024).

Each structure is given as a SMILES string.

Format in all cases: cell-based
For assay [1], the system named is FKBP51. The assay is described as follows: Immunoblot analysis of dexamethasone induced FKBP51 levels in H4 human neuroglioma cell line. The conditions noted are these: 10 μM compound, dexamethasone containing media, 24 h, immunoblot (FIG. 1). As to the method:
FIGS. 1A-1B show qPCR (FIG. 1A) and immunoblot analysis (FIG. 1B) of FKBP51 levels in cultures of H4 human neuroglioma cell line treated with methyl acetate vehicle (MeOAc) or ethanol vehicle (ETOH) or 10 μM 15-deoxy-12,14-prostaglandin J2 (J2) or 10 μM 9-nitro oleic acid (9N), or 10 μM 10-nitro oleic acid (ION) in control (dimethyl sulfoxide; DMSO) or dexamethasone (Dex) containing media for 6 h and 24 h. Cultures incubated with treatments for 6 h were used for RNA analysis whereas cultures incubated with treatments for 24 h were used for protein analysis. Bars represent mean±SEM; n=3 independent experiments.
A general note: In western blotting, separated proteins are transferred to a membrane and probed.

In assay [2] the test system is FKBP51. Briefly: Immunoblot analysis of dexamethasone induced FKBP51 levels in HT-22 mouse hippocampal neuronal cell line. Particulars: 20 μM compound, 500 nM dexamethasone, immunoblot (FIG. 2).
Assay [3] has as its system glucocorticoid receptor response element (GRE). The assay is described as follows: GRE reporter luciferase assay in dexamethasone treated HeLa cells. Particulars: dexamethasone treated HeLa cells transfected with empty vector or FKBP51 vector (FIG. 3).

As to `CCCCCCCC/C=C(\CCCCCCCC(=O)O)[N+](=O)[O-]` [9-nitro oleic acid, 9-nitro-9E-octadecenoic acid], the “dexamethasone induced FKBP51 protein levels” value in the assay with FKBP51 [1] and with FKBP51 [2] was “inhibit dexamethasone induced FKBP51 protein levels” each time. In addition, the “glucocorticoid receptor response (GRE reporter luciferase)” value (“glucocorticoid receptor response” below) in assay [3] was “alter glucocorticoid receptor response”.
On to `CCCCCCCC/C(=C\CCCCCCCC(=O)O)[N+](=O)[O-]` [10-nitro oleic acid, 10-nitro-9E-octadecenoic acid], for which the “dexamethasone induced FKBP51 protein levels” value in the assay on FKBP51 [1] and in the assay on FKBP51 [2] was “inhibit dexamethasone induced FKBP51 protein levels” in each case. Moreover, the “glucocorticoid receptor response” value in assay [3] is given as “alter glucocorticoid receptor response”.
As to `CCCCC/C=C/C=C1/C(=O)C=C[C@@H]1C/C=C\CCCC(=O)O` [15-deoxy-12,14-prostaglandin J2, 15-deoxy-Δ12,14-prostaglandin J2], the “dexamethasone induced FKBP51 protein levels” value in the assay on FKBP51 [1] and in the assay on FKBP51 [2] was “inhibit dexamethasone induced FKBP51 protein levels” each time. Further, the “glucocorticoid receptor response” value in assay [3] is recorded as “alter glucocorticoid receptor response”.
